Data on three compounds can be found in patent publication US20210290593A1, “USE OF SUSTAINED-RELEASE 5-HYDROXYTRYPTOPHAN IN TREATING GASTROINTESTINAL DISORDERS” (Duke University, priority 2018, published 2021).

“Also recorded” adds a separate entry of the source. Read-outs that look alike come from different tables or passages of the source. A value given as a limit tells only on which side of the number the result lay.

For data set [1] the following is noted: after administration of exogenous 5-HTP; cited from earlier work.
Data set [2] has as its system isolated colon of WT and R439H mice. Kind of data set: Colonic migrating motor complexes (CMMC) measured in vitro. Also on record: species or system mouse. Here is the method: The entire colon (5-6 cm) was removed and mounted to allow spontaneous motor patterns to be video-imaged for the construction of spatiotemporal maps (Roberts et al, 2008; Roberts et al, 2007). The isolated colon was incubated in Krebs' solution until endogenous fecal pellets were expelled. The empty colon was cannulated at both ends, mounted in a horizontal organ bath, and both luminal and serosal compartments were superfused with oxygenated Krebs' solution at 35° C. The height of a reservoir connected to the oral cannula was adjusted to maintain intraluminal pressure at +2 cm HO. The anal cannula provided a maximum of 2 cm of back-pressure. The contractile activity was imaged with a Logitech Quickcam pro camera positioned 7-8 cm above the gut. Preparations were equilibrated for 30 min and four 15 min videos were captured. Spatiotemporal maps of the diameter at each point along the proximo-distal length of colon were constructed and used to quantify the frequency of CMMCs as well as the velocity and length of their propagation (Margolis et al, 2016b; Welch et al, 2014). CMMCs were defined as constrictions of the diameter of the bowel that propagated for at least 50% of the length of the preparations. For studies utilizing IR 5-HTP, a dose response curve was conducted whereby the isolated colons were exposed to concentrations of 5-HTP ranging from 1 to 10 μM, both intraluminally and extraluminally.

For data set [3], the system named is animals. The data set can be described thus: Colonic motility, prucalopride vs 5-HTP. The data set is classed as in vivo. Conditions: in animals. From the text:
FIG. 9. Colonic motility. Effect of prucalopride vs 5-HTP.

A short description of data set [4]: Human 5-HTP gastrointestinal regional absorption study (plasma 5-HTP). Type of data set: in vivo. Conditions: for bioavailability: read-out: Absolute bioavailability F; for Cmax: read-out: Maximal average 5-HTP plasma (CMax) levels. Here is the method: Determination of absolute and regional intestinal bioavailability of 5-HTP in humans.
The free base form of 5-HTP was used (5-HTP has a water solubility of >10 mg/mL).
Colonic: 5-HTP free base saline solution 200 mg.
Intravenous: 5-HTP free base saline solution 50 mg.
Oral/Upper GI: Two 5-HTP gelatin tablets of 100 mg 5-HTP free base (200 mg total dose).
Healthy male and female volunteers aged 18 to 65 years with a body mass index (BMI) of 19 to 28 were eligible for the study. Subjects were admitted to the investigational medical unit (IMU) 2 h before 5-HTP administration and remained at the IMU for 24 h following, for blood sampling and safety assessment.
All subjects (n=12) received 5-HTP mg on 3 occasions. (1) Intra-colonic 200 mg 5-HTP solution by colonoscopy. (2) Intravenous 50 mg (IV). (3) Upper GI (oral) 5-HTP 200 mg. At least 6 days passed between each visit.
Plasma samples were collected over 24-hours after 5-HTP administration. Plasma samples were stored at −80° C. until analysis. 5-HTP and the metabolite 5-hydroxyindole-acetic-acid (5-HIAA) were quantified by liquid chromatography with mass-spectrometry detection.
The PK data were analyzed using noncompartmental (NCA) and compartmental (mixed effects) mathematical modelling approaches, to calculate area 5-HTP plasma under the curve (AUC) for each subject for each 5-HTP administration.
From FIG. 10, the area under the curve (AUC) for each route of administration was obtained, which was then used to calculate the absolute bioavailability (F) of the oral and colon routes of administration. For example, the formula for calculating F for a drug administered by the oral route (po) is given below (D is dose): […]

Data set [5] relates to WT and R439H mice. Kind of data set: Total gastrointestinal transit time (oral carmine red). The data set is classed as in vivo, mouse. Conditions: 30 mg/kg intraperitoneal. Here is the method:
Carmine red (300 μl; 6%; Sigma-Aldrich) suspended in 0.5% methylcellulose, which cannot be absorbed, was administered by gavage to study total GI transit time. Total GI transit time was considered as the interval between gavage and the appearance of carmine red in stool (Kimball et al, 2005).

The nature of data set [6]: Water solubility. Conditions: free base. The data set is classed as physicochemical.
Data set [7] has as its system WT and R439H mice. The data set can be described thus: Colonic propulsion (glass bead expulsion time). Type of data set: in vivo, mouse. Here is the method: Mice were anesthetized with isoflurane (Baxter Pharmaceutical Products) and a glass bead (3 mm in diameter) was pushed with a fire-polished glass rod through the anus into the colon to a distance of 2 cm from the anal verge (Li et al, 2006). The time required for the mice to expel the bead was determined and used to estimate in vivo colorectal propulsion.

The conditions of data set [8]: one rodent study; cited from earlier work.
Data set [9] has as its system mice. The data set can be described thus: Morphine-induced constipation (colonic motility). The data set is classed as in vivo, mouse. From the text:
FIG. 8. Morphine-induced constipation and reversal by 5-HTP in mice.

The subject of data set [10] is R439H mice. Conditions: cited from earlier work.

As to `N[C@@H](Cc1c[nH]c2ccc(O)cc12)C(=O)O` [5-HTP, 5-hydroxytryptophan], in data set [1], the “5-HTP plasma levels needed to produce systemic pharmacological effects” value is “over 100 ng/ml”. The CMMC frequency is 0.78±0.18 CMMC/min in data set [2] (R439H colon, extraluminal 1 μM); 1.02±0.10 CMMC/min in data set [2] (R439H colon, intraluminal 1 μM); 0.60±0.20 CMMC/min in data set [2] (WT colon, extraluminal 1 μM); 0.90±0.06 CMMC/min in data set [2] (WT colon, intraluminal 1 μM). Moreover, the CMMC velocity in [2] (R439H colon, extraluminal 1 μM) came out at 3.2±0.2 mm/s; in data set [2] (R439H colon, intraluminal 1 μM) it was 2.7±0.2 mm/s; in data set [2] (WT colon, extraluminal 1 μM) it was 1.4±0.5 mm/s; in data set [2] (WT colon, intraluminal 1 μM) it was 2.3±0.2 mm/s. Moreover, the “Efficacy (maximal effect) on colonic motility compared to prucalopride” value in [3] is given as “higher efficacy”. Also, the “Potency on colonic motility compared to prucalopride” value in data set [3] is “higher potency; also recorded: more potent than prucalopride at lower doses”. Moreover, the “Absorption in upper intestine compared to colon” value in [4] stood at 5 times. Also, the AUC in [4] (both sexes, plasma, intravenous dosing 50 mg) worked out at 2040 ng·h/mL; in data set [4] (both sexes, plasma, oral dosing 200 mg), 1500 ng·h/mL; in [4] (both sexes, plasma, other: intra-colonic by colonoscopy, colonic dosing 200 mg), 312 ng·h/mL. Moreover, the bioavailability came to 20% in [4] (both sexes, plasma, oral 200 mg (upper GI tract)) and 4% in [4] (both sexes, plasma, other: intra-colonic by colonoscopy, intra-colonic 200 mg). Also, the Cmax in data set [4] (both sexes, plasma, other: intra-colonic by colonoscopy, 200 mg, intra-colonic 200 mg) was 40 to 50 ng/mL; in [4] (both sexes, plasma, po, 200 mg, oral 200 mg), 370 ng/mL. Also, the Relative upper GI:colon bioavailability in [4] (both sexes, plasma, other: upper GI (oral) and intra-colonic compared, 200 mg, read-out: Relative upper GI tract:colon bioavailability (RBA)) was 20%. For the same compound, the “Maximal average 5-HTP plasma (CMax) levels” value in data set [4] (intra-colonic 200 mg) was 47 ng/mL. The “Total in vivo GI transit time” value in data set [5] came out at 74.9 ± 19.5 min. The same compound registered a solubility in data set [6] above 10000 µg/mL. In addition, the “Time of colonic bead expulsion” value in data set [7] (30 mg/kg intraperitoneal) was determined as 7.2 ± 1.6 min; in data set [7] (100 mg/kg intraperitoneal), 5.2 ± 1.6 min. Also, the “Absorption by the colon vs the upper intestine” value in [8] is “absorbed equally well by the colon and the upper intestine”. Moreover, in data set [9] (5-HTP 30 mg/kg), the “Colonic motility, 5-HTP by itself” value was “enhanced colonic motility”. Besides, the “Effect on morphine-induced constipation (colonic motility)” value in [9] (5-HTP 30 mg/kg with morphine 10 mg/kg) is “reversed the morphine-induced constipation”.

For `CN1CC[C@]23c4c5ccc(O)c4O[C@H]2[C@@H](O)C=C[C@H]3[C@H]1C5` [Morphine, reference compound], the Colonic motility result in data set [9] (morphine 10 mg/kg) was “induced constipation, as determined by slowed colonic motility”.

For the compound `CNCCC(Oc1ccc(C(F)(F)F)cc1)c1ccccc1` (stereo not shown) [fluoxetine], in data set [10], the “CNS 5-HT levels” value was “further decline in CNS 5-HT levels” and the Depressive behaviors result is reported as “worsened their depressive behaviors”.
